# Source: patent US7465753B2, “Glycoside-containing liposome” (Otsuka Pharmaceutical Co., Ltd., priority 2003, dated 2008)
# Where two headings read alike, the source gives them in different places.
# Experiments:
# colon26 wild [1] = test: Cell proliferation inhibitory effect, MTT assay, colon26 wild; format: cell-based; conditions: glycoside employed alone, 37° C. for three days
# Description: A cultured cancer cell line (colon26 wild) was inoculated into a 96-well plate (1×10^4 cells/100 μL/well), and subsequently a cholestanol glycoside (GlcNAcβ1,4GalChol, Fucα1,3GalChol, GalβChol, or Chol) or each type of the cholestanol glycoside liposomes formed in Example 1 was added to the 96-well plate, followed by incubation at 37° C. for three days. Thereafter, the MTT assay was performed, and the number of live cells was determined. The cell proliferation inhibition rate was obtained by use of the following formula. Cell proliferation inhibition rate(CPI rate)(%)=(1−OD of treated cells/OD of non-treated cells)×100
# colon26 wild [2] = conditions: glycoside alone; conventionally shown; cited from earlier work
SMILES,cell proliferation inhibitory effect (colon26 wild [1]),cell proliferation inhibitory effect (colon26 wild [2])
"CC(C)CCC[C@@H](C)[C@H]1CC[C@H]2[C@@H]3CC[C@H]4C[C@@H](O[C@@H]5O[C@H](CO)[C@H](O)[C@H](O[C@@H]6O[C@@H](C)[C@@H](O)[C@@H](O)[C@@H]6O)[C@H]5O)CC[C@]4(C)[C@H]3CC[C@]12C [Fucα1,3GalChol, 3-β-cholestanyl 3-O-(α-L-fucopyranosyl)-β-D-galactopyranoside]",scarcely exhibits cell proliferation inhibitory effect,–
"CC(=O)N[C@H]1[C@H](O[C@@H]2[C@H](O)[C@@H](O)[C@H](O[C@H]3CC[C@@]4(C)[C@@H](CC[C@@H]5[C@@H]4CC[C@]4(C)[C@@H]([C@H](C)CCCC(C)C)CC[C@@H]54)C3)O[C@@H]2CO)O[C@H](CO)[C@@H](O)[C@@H]1O [GlcNAcβ1,4GalChol, 3-β-cholestanyl 4-O-(2-acetamido-2-deoxy-β-D-glucopyranosyl)-β-D-galactopyranoside]",–,has conventionally been shown to have cell proliferation inhibitory effect
